Counter-ions that a name gives are not always drawn.
Test system: THP-1 cells
Test: cells
Assay type: cell-based
Settings: Homo sapiens, THP-1, 96 h
Experimental: By analyzing the induction of CD11b membrane expression on THP-1 cells we are assessing the ability of LSD1 inhibitors to induce terminal monocytic differentiation of a MLL-AF9 AML cell line.
They carry t(9; 11)(p21; q23) leading to MLL-MLLT3 (MLL-AF9) fusion gene. This cell line can undergo monocytic differentiation upon treatment with the appropriate stimulus.
In this assay, 150,000 THP-1 cells were seeded in 1 ml of complete culture medium in 6-well tissue culture plates. Serial dilutions of the compounds were prepared in DMSO and then further diluted in complete medium to generate solutions of concentrations that are double of the final concentration at which the cells will be exposed. 1 ml of these 2× concentrated solutions was added to the cells.
Cells were kept in the presence of compounds for 96 h at a 5% CO2 atmosphere at 37° C. After this treatment period, cells were harvested, washed twice with PBS buffer and placed in a V-bottom 96-well plate. Each treated sample was split in two.
Percentage of CD11b positive cells, as an indicator of monocytic differentiation, was determined compared to isotype control antibody stained cells. EC50 values were calculated by non-linear regression analysis.

Structure (SMILES) | EC50 [nM]
c1ccc([C@H]2C[C@@H]2NC2CCNCC2)cc1 (racemic) [Example 1, N-((trans)-2-phenylcyclopropyl)piperidin-4-amine hydrochloride] | 2.1
c1ccc([C@@H]2C[C@H]2NC2CCNCC2)cc1 [Example 3, N-((1R,2S)-2-phenylcyclopropyl)piperidin-4-amine hydrochloride] | 0.8

Reference: patent publication US10329256B2, “(Hetero)aryl cyclopropylamine compounds as LSD1 inhibitors” (Oryzon Genomics, S.A., priority 2011, dated 2019)
